Test results as given in the NIST ThermoML archive (doi:10.1016/j.jct.2009.01.010).

Legend:
[1] = refractive index (Na D-line) (dimensionless); conditions: 298.15 K; 101.33 kPa; Liquid; Abbe refractometer
[2] = 298.15 K, 101 kPa, Liquid; for speed of sound: Linear variable-path acoustic interferometer; for mass density: Pycnometric method
[3] = xn = mol fraction of the nth substance listed; conditions: 298.15 K, 101 kPa, Liquid; for speed of sound: Linear variable-path acoustic interferometer; for mass density: Pycnometric method
[4] = refractive index (Na D-line) (dimensionless); xn = mol fraction of the nth substance listed; conditions: 298.15 K, 101 kPa, Liquid, Abbe refractometer

COCCOCCO [2-(2-methoxyethoxy)ethanol]
Conditions | mass density [kg/m3] | refractive index | speed of sound [m/s]
[1] | – | 1.425 | –
[2] | 1016.95 | – | 1422.6

COCCOCCO [2-(2-methoxyethoxy)ethanol] + O
Conditions | mass density, [3] [kg/m3] | refractive index, [4] | speed of sound, [3] [m/s]
x1 = 0.013 | 1002.42 | 1.341 | 1546
x1 = 0.026 | 1008.21 | 1.349 | 1582
x1 = 0.051 | 1017.19 | 1.36 | 1640
x1 = 0.064 | 1021.22 | 1.366 | 1646.7
x1 = 0.074 | 1023.92 | 1.37 | 1662
x1 = 0.101 | 1029.24 | 1.378 | 1674
x1 = 0.15 | 1034.64 | 1.39 | 1674
x1 = 0.187 | 1035.66 | 1.396 | 1660
x1 = 0.305 | 1034.8 | 1.408 | 1606
x1 = 0.401 | 1031.91 | 1.412 | 1562
x1 = 0.506 | 1028.25 | 1.415 | 1514
x1 = 0.646 | 1024.01 | 1.418 | 1474
x1 = 0.766 | 1021.27 | 1.419 | 1454
x1 = 0.895 | 1018.65 | 1.422 | 1442
x1 = 1 | 1016.95 | 1.425 | 1422.6

CCOCCO [2-ethoxyethan-1-ol]
Conditions | mass density [kg/m3] | refractive index | speed of sound [m/s]
[1] | – | 1.4058 | –
[2] | 925.39 | – | 1302.5

CCOCCO [2-ethoxyethan-1-ol] + O
Conditions | mass density, [3] [kg/m3] | refractive index, [4] | speed of sound, [3] [m/s]
x1 = 0.0092 | 996.93 | 1.3389 | 1541.3
x1 = 0.0177 | 997.02 | 1.3415 | 1553.1
x1 = 0.025 | 997.2 | 1.3442 | 1575.6
x1 = 0.0502 | 998.06 | 1.3542 | 1626.9
x1 = 0.0767 | 998.24 | 1.3628 | 1649.6
x1 = 0.1024 | 996.67 | 1.3709 | 1646.5
x1 = 0.183 | 988.37 | 1.3854 | 1567.6
x1 = 0.299 | 974.41 | 1.394 | 1517.4
x1 = 0.4058 | 963.11 | 1.3979 | 1458.1
x1 = 0.5059 | 954.22 | 1.4012 | 1415.2
x1 = 0.5996 | 947.01 | 1.4025 | 1385.7
x1 = 0.706 | 940.07 | 1.4039 | 1359.6
x1 = 0.8431 | 933.47 | 1.4046 | 1330.4
x1 = 0.8716 | 932.35 | 1.4049 | 1325.6
x1 = 1 | 925.39 | 1.4058 | 1302.5

COCCO [2-methoxyethan-1-ol]
Conditions | mass density [kg/m3] | refractive index | speed of sound [m/s]
[1] | – | 1.4002 | –
[2] | 960.23 | – | 1341.7
